21 compounds from patent publication US10562914B2, “Imidazoles as histone demethylase inhibitors” (Istituto Europeo di Oncologia S.r.l., priority 2016, dated 2020) can be followed below.

Counter-ions that a name gives are not always drawn.

The target in assay [1] is T1, human recombinant KDM1A/CoREST protein (Homo sapiens, UniProt O60341).
T1 construct: made in house; host or cells: E. coli
Put plainly: Assay of enzyme inhibition of KDM1A (LSD1), TR-FRET. It is filed as biochemical. The note with it: 0.25 nM KDM1A/CoREST, 50 nM H3K4 monomethylated peptide, 20 min at RT. Here is the method:
2.1 Assay of Enzyme Inhibition of KDM1A (LSD1)
The intensity of the light emission is proportional to the level of biotinylated reaction product. The complex of human recombinant KDM1A/CoREST protein was produced in E. coli as separate proteins and co-purified as previously described.
Demethylase reaction was started by the addition of 50 nM histone H3K4 monomethylated.
The resulting mixture was incubated in the dark for 1 h at RT. Then, TR-FRET signal was read by a fluorimeter (Infinite® F200, Tecan, Männedorf, Swirzerland) (Excitation 320 nm, Emission 665 nm and 620 nm, delay time 50 μs, window time 100 μs).
The inhibitor concentrations ranged from 0.025 to 500 μM (serial 1:3 dilutions). The IC50 was calculated using GraphPad Software.
In general terms: Time-resolved FRET reads energy transfer from a long-lived donor to a nearby acceptor.

Assay [2] concerns Human leukemia MV4-11 cells. Put plainly: Cell growth, CellTiter-Fluor viability assay, MV4-11. The format is cell-based. Conditions: 48 h incubation, read-out: IC50 against human leukemia MV4-11 cells. An excerpt:
(§1) CellTiter-Flor® (Promega) is as a nonlytic, single-reagent-addition fluorescence assay that measures the relative number of living cells in a culture population after experimental manipulation. The CellTiter-Fluor™ Cell Viability Assay measures the conserved and constitutive protease activity within live cells and therefore acts as a marker for cell viability.
(§2) Human leukemia MV4-11 cells, (obtained from the Deutsche Sammlung von Mikroorganismen und Zellkulturen, ACC 102) or NB4 cells, (obtained from the Deutsche Sammlung von Mikroorganismen und Zellkulturen) in exponential growth, were incubated for 48 h with different concentrations of the inhibitors. After 48 h a volume of CellTiter-Fluor® Reagent equal to one fifth of volume of cell culture medium was added. The content was mixed and incubates for at least 90 min at 37° C. degree to obtain a stable signal. The fluorescence was recorded using an excitation wavelength of 360 nm and an emission at 535 nm. The IC50 was calculated using GraphPad Software.

The test system of a further assay is human leukemia NB4 cells. Put plainly: Cell growth, CellTiter-Fluor viability assay, NB4. It is filed as cell-based. Conditions: NB-4, 48 h incubation, read-out: IC50 against human leukemia NB4 cells.
From the text: as §1, §2

Consider `CCc1cnc(-c2cc3sccc3n2C)n1CCOc1cccc(OC2CCNCC2)c1` [Example 19, 5-[5-ethyl-1-[2-[3-(4-piperidyloxy)phenoxy]ethyl]imidazol-2-yl]-4-methyl-thieno[3,2-b]pyrrole], for which the values for the IC50 (in assay [1]; in assay [2]; in the assay on human leukemia NB4 cells) were below 0.1 µM, below 10 µM and below 20 µM, respectively.
As to `CCc1cn(CCOc2ccc(OC3CCCNCC3)cc2)c(-c2cc3sccc3n2C)n1` (stereo not shown) [Example 25, 5-[1-[2-[4-(azepan-4-yloxy)phenoxy]ethyl]-4-ethyl-imidazol-2-yl]-4-methyl-thieno[3,2-b]pyrrole hydrochloride], the values for the half-inhibitory concentration (IC50) (in assay [2]; in the assay on human leukemia NB4 cells) were below 10 µM and below 20 µM, respectively.
For the compound `CCc1c(-c2ccccc2)nc(-c2cc3sccc3n2C)n1CCCc1ccc(OC2CCNCC2)cc1` [Example 46, 5-[5-ethyl-4-phenyl-1-[3-[4-(4-piperidyloxy)phenyl]propyl]imidazol-2-yl]-4-methyl-thieno[3,2-b]pyrrole hydrochloride], the IC50 in assay [1] is below 0.1 µM; with human leukemia NB4 cells, below 10 µM.
On to `CCc1cnc(-c2cc3sccc3n2C)n1CCCc1ccc(OCC2CCNCC2)cc1` [Example 43, 5-[5-ethyl-1-[3-[4-(4-piperidylmethoxy)phenyl]propyl]imidazol-2-yl]-4-methyl-thieno[3,2-b]pyrrole], for which the half-inhibitory concentration (IC50) in assay [1] is below 0.1 µM; with human leukemia NB4 cells it was below 10 µM.
As to `CCc1cnc(-c2cc3sccc3n2C)n1CCCc1ccc(OC2CCCNCC2)cc1` (stereo not shown) [Example 45, 5-[1-[3-[4-(azepan-4-yloxy)phenyl]propyl]-5-ethyl-imidazol-2-yl]-4-methyl-thieno[3,2-b]pyrrole hydrochloride], the concentration for half-maximal inhibition (IC50) in assay [1] is below 0.1 µM; in the assay with human leukemia NB4 cells, below 10 µM.
In the case of `CCc1cn(CCCc2ccc(OC3CCCNCC3)cc2)c(-c2cc3sccc3n2C)n1` (stereo not shown) [Example 44, 5-[1-[3-[4-(azepan-4-yloxy)phenyl]propyl]-4-ethyl-imidazol-2-yl]-4-methyl-thieno[3,2-b]pyrrole hydrochloride], in the assay on human leukemia NB4 cells, the concentration for half-maximal inhibition (IC50) is below 10 µM.
As for `CCCc1nc(-c2cc3sccc3n2C)n(CCOc2ccc(OC3CCNCC3)cc2)c1-c1ccccc1` [Example 40, 4-methyl-5-[5-phenyl-1-[2-[4-(4-piperidyloxy)phenoxy]ethyl]-4-propyl-imidazol-2-yl]thieno[3,2-b]pyrrole hydrochloride], the IC50 is below 0.1 µM in assay [1] and below 10 µM in the assay on human leukemia NB4 cells.
On to `Cn1c(-c2nc(C3CCC3)cn2CCOc2ccc(OC3CCNCC3)cc2)cc2sccc21` [Example 29, 5-[4-cyclobutyl-1-[2-[4-(4-piperidyloxy)phenoxy]ethyl]imidazol-2-yl]-4-methyl-thieno[3,2-b]pyrrole hydrochloride], for which the half-inhibitory concentration (IC50) in assay [2] was below 10 µM; in the assay on human leukemia NB4 cells, below 20 µM.
With `CCc1cn(CCOc2cccc(OC3CCNCC3)c2)c(-c2cc3sccc3n2C)n1` [Example 18, 5-[4-ethyl-1-[2-[3-(4-piperidyloxy)phenoxy]ethyl]imidazol-2-yl]-4-methyl-thieno[3,2-b]pyrrole hydrochloride], the IC50 in assay [1] is below 0.1 µM; in assay [2], below 10 µM; with human leukemia NB4 cells it was below 20 µM.
Taken in the same sequence, the figures for `CCc1cnc(-c2cc3sccc3n2C)n1CCOc1ccc(OCC2CCNCC2)cc1` [Example 24, 5-[5-ethyl-1-[2-[4-(4-piperidylmethoxy)phenoxy]ethyl]imidazol-2-yl]-4-methyl-thieno[3,2-b]pyrrole trifluoroacetate] were below 0.1 µM, below 10 µM and below 20 µM.
With `CCc1cnc(-c2cc3sccc3n2C)n1CCOc1ccc(OC2CCNCC2)cc1` [Example 21, 5-[5-ethyl-1-[2-[4-(4-piperidyloxy)phenoxy]ethyl]imidazol-2-yl]-4-methyl-thieno[3,2-b]pyrrole], the half-maximal inhibitory concentration (IC50) is below 0.1 µM in assay [1], below 10 µM in assay [2] and below 20 µM with human leukemia NB4 cells.
Turning to `CCc1cnc(-c2cc3sccc3n2C)n1CCCc1ccc(OCC2CCNCC2)c(OCC2CCNCC2)c1` [Example 57, 5-[1-[3-[3,4-bis(4-piperidylmethoxy)phenyl]propyl]-5-ethyl-imidazol-2-yl]-4-methyl-thieno[3,2-b]pyrrole dihydrochloride], the figures for the IC50 (in assay [1]; with human leukemia NB4 cells) were below 0.1 µM and below 10 µM, respectively.
Turning to `CCc1cn(CCOc2ccc(OC3CCNCC3)cc2)c(-c2cc3ccsc3n2C)n1` [Example 39, 5-[4-ethyl-1-[2-[4-(4-piperidyloxy)phenoxy]ethyl]imidazol-2-yl]-6-methyl-thieno[2,3-b]pyrrole], the 50% inhibitory concentration (IC50) was below 0.1 µM in assay [1] and below 10 µM with human leukemia NB4 cells.
`CCc1cn(CCCc2ccc(OCC3CCNCC3)cc2)c(-c2cc3sccc3n2C)n1` [Example 42, 5-[4-ethyl-1-[3-[4-(4-piperidylmethoxy)phenyl]propyl]imidazol-2-yl]-4-methyl-thieno[3,2-b]pyrrole hydrochloride]: in the assay on human leukemia NB4 cells, the IC50 was below 10 µM.
With `CCCc1c(-c2ccccc2)nc(-c2cc3sccc3n2C)n1CCOc1ccc(OC2CCNCC2)cc1` [Example 41, 4-methyl-5-[4-phenyl-1-[2-[4-(4-piperidyloxy)phenoxy]ethyl]-5-propyl-imidazol-2-yl]thieno[3,2-b]pyrrole], the IC50 is below 0.1 µM in assay [1] and below 10 µM in the assay on human leukemia NB4 cells.
Take `CCc1nc(-c2cc3sccc3n2C)n(CCCc2ccc(OC3CCNCC3)cc2)c1-c1ccccc1` [Example 47, 5-[4-ethyl-5-phenyl-1-[3-[4-(4-piperidyloxy)phenyl]propyl]imidazol-2-yl]-4-methyl-thieno[3,2-b]pyrrole hydrochloride]: the half-inhibitory concentration (IC50) in assay [1] is below 0.1 µM; with human leukemia NB4 cells, below 10 µM.
With `Cn1c(-c2ncc(C3CCC3)n2CCCc2ccc(OC3CCNCC3)cc2)cc2sccc21` [Example 50, 5-[5-cyclobutyl-1-[3-[4-(4-piperidyloxy)phenyl]propyl]imidazol-2-yl]-4-methyl-thieno[3,2-b]pyrrole], the half-inhibitory concentration (IC50) was below 0.1 µM in assay [1] and below 10 µM with human leukemia NB4 cells.
Consider `Cn1c(-c2nc(C3CCC3)cn2CCCc2ccc(OC3CCNCC3)cc2)cc2sccc21` [Example 49, 5-[4-cyclobutyl-1-[3-[4-(4-piperidyloxy)phenyl]propyl]imidazol-2-yl]-4-methyl-thieno[3,2-b]pyrrole hydrochloride], for which, in the assay with human leukemia NB4 cells, the IC50 is below 10 µM.
In the case of `CCc1cn(CCCc2ccc(OC3CCNCC3)cc2)c(-c2cc3sccc3n2C)n1` [Example 27, 5-[4-ethyl-1-[3-[4-(4-piperidyloxy)phenyl]propyl]imidazol-2-yl]-4-methyl-thieno[3,2-b]pyrrole hydrochloride], the figures for the IC50 (in assay [2]; with human leukemia NB4 cells) were below 10 µM and below 20 µM, respectively.
Taken in the same sequence, the figures for `CCc1cn(CCOc2ccc(OC3CCNCC3)cc2)c(-c2cc3sccc3n2C)n1` [Example 20, 5-[4-ethyl-1-[2-[4-(4-piperidyloxy)phenoxy]ethyl]imidazol-2-yl]-4-methyl-thieno[3,2-b]pyrrole hydrochloride] were below 10 µM and below 20 µM.
With `CC(C)c1nc(-c2cc3sccc3n2C)n(CCOc2ccc(OC3CCNCC3)cc2)c1-c1ccccc1` [Example 48, 5-[4-isopropyl-5-phenyl-1-[2-[4-(4-piperidyloxy)phenoxy]ethyl]imidazol-2-yl]-4-methyl-thieno[3,2-b]pyrrole], the IC50 was below 0.1 µM in assay [1] and below 10 µM in the assay on human leukemia NB4 cells.

Usually IC50 stands for the concentration that gives 50% inhibition.
